Measurements as given in patent US8846947B2, “Benzimidazoles and related analogs as sirtuin modulators” (GlaxoSmithKline LLC, priority 2008, dated 2014).
Like-named read-outs stand apart in the source and are kept apart here.

Molecular target: T1, SIRT1 (Homo sapiens, UniProt Q96EB6)
T1 sequence (Q96EB6 1-747): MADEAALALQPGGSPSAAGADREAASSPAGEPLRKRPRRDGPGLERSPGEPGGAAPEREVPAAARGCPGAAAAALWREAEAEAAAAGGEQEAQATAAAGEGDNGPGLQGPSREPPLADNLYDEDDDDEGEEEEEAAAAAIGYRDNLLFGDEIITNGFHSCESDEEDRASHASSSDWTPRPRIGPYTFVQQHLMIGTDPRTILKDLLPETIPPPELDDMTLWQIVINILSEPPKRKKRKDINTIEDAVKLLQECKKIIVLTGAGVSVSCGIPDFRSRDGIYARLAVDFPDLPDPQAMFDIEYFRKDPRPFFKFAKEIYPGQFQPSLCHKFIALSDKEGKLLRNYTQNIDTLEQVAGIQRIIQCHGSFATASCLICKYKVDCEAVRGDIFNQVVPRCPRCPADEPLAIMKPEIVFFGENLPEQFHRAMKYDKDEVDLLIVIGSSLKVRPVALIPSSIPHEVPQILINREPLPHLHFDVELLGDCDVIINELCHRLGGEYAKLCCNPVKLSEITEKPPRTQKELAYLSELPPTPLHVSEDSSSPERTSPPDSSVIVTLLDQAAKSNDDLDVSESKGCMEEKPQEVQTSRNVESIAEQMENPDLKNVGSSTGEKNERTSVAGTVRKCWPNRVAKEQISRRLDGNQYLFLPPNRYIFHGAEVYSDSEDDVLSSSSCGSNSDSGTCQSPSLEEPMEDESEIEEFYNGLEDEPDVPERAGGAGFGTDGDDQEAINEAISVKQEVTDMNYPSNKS
Assay: Mass spectrometry based SIRT1 deacetylase activation assay (acetylated p53-derived peptide substrate)
Assay type: biochemical

[1] = 0.5 μM peptide substrate, 120 μM βNAD+, 10 nM SIRT1, 25 min at 25° C.
[2] = 0.5 μM peptide substrate, 120 μM βNAD+, 10 nM SIRT1, 25 min at 25° C., read-out: EC1.5

| EC1.5 | Fold Act. (percent maximum fold activation) | Fold Act. (percent maximum fold activation) [1] | EC1.5 [2] [nM] | SMILES |
| --- | --- | --- | --- | --- |
| B (EC1.5 1-25 uM) | A (Fold activation >200%) |  |  | O=C(Nc1cccc2[nH]c(-c3ccnn3-c3ccccc3)nc12)c1cscn1 [Compound 392] |
| A (EC1.5<1.0 uM) | A (Fold activation >200%) |  |  | Cc1nc(NC(=O)c2cccc3[nH]c(-c4ccc(Cl)cc4C(F)(F)F)nc23)sc1C [Compound 393] |
| A (EC1.5<1.0 uM) | A (Fold activation >200%) |  |  | Cc1cc(C)nc(NC(=O)c2cccc3[nH]c(-c4ccc(Cl)cc4C(F)(F)F)nc23)c1 [Compound 394] |
| A (EC1.5<1.0 uM) | A (Fold activation >200%) |  |  | Cc1nc(NC(=O)c2cccc3[nH]c(-c4ccnn4-c4ccccc4)nc23)sc1C [Compound 395] |
| A (EC1.5<1.0 uM) | A (Fold activation >200%) |  |  | Cc1cnc(NC(=O)c2cccc3[nH]c(-c4cccc(N5CCOCC5)c4)nc23)s1 [Compound 396] |
| B (EC1.5 1-25 uM) | A (Fold activation >200%) |  |  | O=C(NC1CCOC1=O)c1cccc2[nH]c(-c3cccc(N4CCOCC4)c3)nc12 (centres unmarked) [Compound 397] |
|  |  | A (Fold activation >200%) | < 1000 | Cc1cc(C)nc(NC(=O)c2cccc3[nH]c(-c4cccc(N5CCOCC5)c4)nc23)c1 [Compound 398] |
|  |  | A (Fold activation >200%) | < 1000 | Cc1cc(NC(=O)c2cccc3[nH]c(-c4cccc(N5CCOCC5)c4)nc23)n(C)n1 [Compound 399] |
|  |  | A (Fold activation >200%) | < 1000 | O=C(Nc1nccs1)c1cccc2[nH]c(-c3cn4ccsc4n3)nc12 [Compound 400] |
|  |  | A (Fold activation >200%) | 1000 to 25000 | CC1(C)Cc2cccc(-c3nc4c(C(=O)Nc5cccnc5)cccc4[nH]3)c2O1 [Compound 401] |
|  |  | A (Fold activation >200%) | < 1000 | CS(=O)(=O)c1cccc(-c2nc3c(C(=O)Nc4nccs4)cccc3[nH]2)c1 [Compound 402] |
|  |  | A (Fold activation >200%) | 1000 to 25000 | CS(=O)(=O)c1cccc(-c2nc3c(C(=O)Nc4ccccn4)cccc3[nH]2)c1 [Compound 403] |
|  |  | A (Fold activation >200%) | < 1000 | CS(=O)(=O)c1cccc(-c2nc3c(C(=O)Nc4cccnc4)cccc3[nH]2)c1 [Compound 404] |
|  |  | B (Fold Activation <200%) | 1000 to 25000 | CS(=O)(=O)c1ccc(-c2nc3c(C(=O)Nc4nccs4)cccc3[nH]2)cc1 [Compound 405] |
|  |  | A (Fold activation >200%) | 1000 to 25000 | CS(=O)(=O)c1ccc(-c2nc3c(C(=O)Nc4ccccn4)cccc3[nH]2)cc1 [Compound 406] |
|  |  | B (Fold Activation <200%) | > 25000 | CS(=O)(=O)c1ccc(-c2nc3c(C(=O)Nc4cccnc4)cccc3[nH]2)cc1 [Compound 407] |
|  |  | A (Fold activation >200%) | < 1000 | Cc1nc(-c2ccccc2)sc1-c1nc2c(C(=O)Nc3nccs3)cccc2[nH]1 [Compound 408] |
|  |  | A (Fold activation >200%) | < 1000 | Cc1nc(-c2ccccc2)sc1-c1nc2c(C(=O)Nc3ccccn3)cccc2[nH]1 [Compound 409] |
|  |  | B (Fold Activation <200%) | < 1000 | Cc1nc(-c2ccccc2)sc1-c1nc2c(C(=O)Nc3cccnc3)cccc2[nH]1 [Compound 410] |
|  |  | A (Fold activation >200%) | < 1000 | Cc1nc(N2CCOCC2)sc1-c1nc2c(C(=O)Nc3nccs3)cccc2[nH]1 [Compound 411] |
|  |  | A (Fold activation >200%) | < 1000 | Cc1nc(N2CCOCC2)sc1-c1nc2c(C(=O)Nc3ccccn3)cccc2[nH]1 [Compound 412] |
|  |  | A (Fold activation >200%) | < 1000 | Cc1nc(N2CCOCC2)sc1-c1nc2c(C(=O)Nc3cccnc3)cccc2[nH]1 [Compound 413] |
|  |  | A (Fold activation >200%) | < 1000 | O=C(Nc1nccs1)c1cccc2[nH]c(-c3ccc(N4CCOCC4)cc3C(F)(F)F)nc12 [Compound 414] |

| EC1.5 | Fold Act. (percent maximum fold activation) | Fold Act. (percent maximum fold activation) [1] | EC1.5 [2] [nM] | SMILES |
| --- | --- | --- | --- | --- |
|  |  | A (Fold activation >200%) | < 1000 | O=C(Nc1ccccn1)c1cccc2[nH]c(-c3ccc(N4CCOCC4)cc3C(F)(F)F)nc12 [Compound 415] |
|  |  | B (Fold Activation <200%) | 1000 to 25000 | O=C(Nc1cccc2[nH]c(-c3ccc(Cl)cc3C(F)(F)F)nc12)c1cscn1 [Compound 416] |
|  |  | A (Fold activation >200%) | 1000 to 25000 | O=C(Nc1cccc2[nH]c(-c3ccc(Cl)cc3C(F)(F)F)nc12)c1ccccn1 [Compound 417] |
|  |  | A (Fold activation >200%) | 1000 to 25000 | O=C(Nc1cccc2[nH]c(-c3ccc(Cl)cc3C(F)(F)F)nc12)c1cccnc1 [Compound 418] |
|  |  | A (Fold activation >200%) | 1000 to 25000 | O=C(Nc1cccc2[nH]c(-c3ccc(Cl)cc3C(F)(F)F)nc12)c1cnccn1 [Compound 419] |
|  |  | A (Fold activation >200%) | 1000 to 25000 | O=C(NCc1ccccn1)c1cccc2[nH]c(-c3ccccc3C(F)(F)F)nc12 [Compound 420] |
|  |  | B (Fold Activation <200%) | > 25000 | O=C(NC1CCOCC1)c1cccc2[nH]c(-c3ccccc3C(F)(F)F)nc12 [Compound 421] |
|  |  | A (Fold activation >200%) | < 1000 | Cc1cc(C)nc(NC(=O)c2cccc3[nH]c(-c4ccnn4-c4ccccc4)nc23)c1 [Compound 422] |
|  |  | A (Fold activation >200%) | 1000 to 25000 | Cc1cc(NC(=O)c2cccc3[nH]c(-c4ccnn4-c4ccccc4)nc23)n(C)n1 [Compound 423] |
|  |  | B (Fold Activation <200%) | < 1000 | O=C1COc2ccc(-c3nc4c(C(=O)Nc5nccs5)cccc4[nH]3)cc2N1 [Compound 424] |
|  |  | A (Fold activation >200%) | 1000 to 25000 | CCCN1CCCc2ccc(-c3nc4c(C(=O)Nc5nccs5)cccc4[nH]3)cc21 [Compound 425] |
|  |  | A (Fold activation >200%) | < 1000 | O=C(Nc1nccs1)c1cccc2[nH]c(-c3cccc(OC4CCNCC4)c3)nc12 [Compound 426] |
|  |  | A (Fold activation >200%) | < 1000 | O=C(Nc1nccs1)c1cccc2[nH]c(-c3cccc4c3OC(F)(F)O4)nc12 [Compound 427] |
|  |  | A (Fold activation >200%) | < 1000 | O=C(Nc1nccs1)c1cccc2[nH]c(-c3ccccc3OC3CCNCC3)nc12 [Compound 428, 2-(2-(piperidin-4-yloxy)phenyl)-N-(thiazol-2-yl)-1H-benzo[d]imidazole-4-carboxamide] |
|  |  | B (Fold Activation <200%) | > 25000 | O=C(Nc1ccccn1)c1cccc2[nH]c(-c3cc(Cl)ccc3C(F)(F)F)nc12 [Compound 429] |
|  |  | A (Fold activation >200%) | < 1000 | O=C(Nc1cccnc1)c1cccc2[nH]c(-c3ccc(N4CCOCC4)cc3C(F)(F)F)nc12 [Compound 430, 2-(4-morpholino-2-(trifluoromethyl)phenyl)-N-(pyridin-3-yl)-1H-benzo[d]imidazole-4-carboxamide] |
|  |  | B (Fold Activation <200%) | > 25000 | O=C(NC1CCNCC1)c1cccc2[nH]c(-c3ccccc3C(F)(F)F)nc12 [Compound 431] |
|  |  | A (Fold activation >200%) | < 1000 | O=C(Nc1cccnn1)c1cccc2[nH]c(-c3ccc(Cl)cc3C(F)(F)F)nc12 [Compound 432] |
|  |  | B (Fold Activation <200%) | 1000 to 25000 | O=C(NCc1ccccn1)c1cccc2[nH]c(-c3ccc(Cl)cc3C(F)(F)F)nc12 [Compound 433] |
|  |  | B (Fold Activation <200%) | 1000 to 25000 | O=C(NC1CCOCC1)c1cccc2[nH]c(-c3ccc(Cl)cc3C(F)(F)F)nc12 [Compound 434] |
|  |  | B (Fold Activation <200%) | 1000 to 25000 | O=C(NCc1ccccn1)c1cccc2[nH]c(-c3ccc(F)cc3C(F)(F)F)nc12 [Compound 435] |
|  |  | B (Fold Activation <200%) | 1000 to 25000 | O=C(NC1CCOCC1)c1cccc2[nH]c(-c3ccc(F)cc3C(F)(F)F)nc12 [Compound 436] |
|  |  | B (Fold Activation <200%) | > 25000 | O=C(NC1CCOCC1)c1cccc2[nH]c(-c3cc(F)ccc3C(F)(F)F)nc12 [Compound 437] |
